Laboratory results as given in patent US11999697B2, “Methods and compositions for inhibition of dihydroorotate dehydrogenase” (OHIO STATE INNOVATION FOUNDATION, priority 2018, dated 2024).
Like-named read-outs stand apart in the source and are kept apart here.

Columns and labels:
[1] = system: p53 signaling pathway in MOLM13, MV4-11, OCI-AML3; experiment: Immunoblots for MDM2, p53, p-γH2AX, p21 in AML cell lines; assay type: cell-based; conditions: 1 μM, 24 hours
Method: FIGS. 6A-6F show representative data and analysis for the effect of a representative disclosed compound, Cpd3, on the inhibition of MDM2. FIGS. 6A-6C show representative immunoblots for cells following vehicle treatment, treatment with a representative disclosed compound, Cpd3, or treatment with a reference compound, brequinar (indicated as “BQR” in the figures) using methods as described herein above. Briefly, AML cell lines were treated with vehicle, 1 μM Cpd3 or 1 μM BQR for 24 hours. Lysates were prepared and immunoblots were performed for MDM2, p53, p-γH2AX, p21 and GAPDH used as loading controls. […] That is, Cpd3 promotes a p53 response evident by both upregulation of the downstream target p21, with compensatory induction of MDM2. […] These preliminary data validate that Cpd3 is a potent inhibitor of DHODH in AML, and further preclinical development of Cpd3 is warranted.

[2] = system: MOLM-13; experiment: MTS cell proliferation assay, MOLM-13; assay type: cell-based; conditions: Homo sapiens, 96 hours
Method: Triplicate wells were set up for each condition.
The assays were carried out in a blinded fashion.

[3] = system: MV4-11; experiment: MTS cell proliferation assay, MV4-11; assay type: cell-based; conditions: for IC50: Homo sapiens, MV4-11, MTS
[4] = system: kinases (more than 480 kinase assays); experiment: DiscoverX KINOMEscan panel; assay type: binding; conditions: 1 μM and 10 μM
From the text: A representative disclosed compound, Cpd3, was screened for potential noncovalent binding interaction with kinases by screening a comprehensive panel in the DiscoverX KINOMEscan® platform (Eurofins DiscoverX Corporation, Fremont, Calif. 94538; e.g., see also Herman, S. E. M., et al., Clin Cancer Res; 23(11) Jun. 1, 2017). Panel allows for screening against more than 480 kinase assays including clinically relevant mutants, lipid, atypical, and pathogen kinases. The screening system provides for thermodynamic affinity data (as opposed to IC50s), and allows for detection of multiple inhibitor types, including type I, type II, and allosteric. […] It is notable that the upper limit tested in this screen is at least 10-fold greater than the observed in vitro IC50 for activity in the assays discussed above.

[5] = Pharmacokinetic study, oral dosing at different dose levels; assay type: in vivo, wild type B6 mice; conditions: for AUC(0-t) / Cmax / Tmax / half-life: B6, mouse, plasma, oral gavage; for AUC(0-t): po
From the text: LC-MS/MS Assay Materials: Acetonitrile and methanol were LC-MS grade (Fisher Scientific (Fair Lawn, N.J., USA). Other chemicals were as follows: formic Acid (98%, v/v in water; Fisher Scientific, Fair Lawn, N.J., USA); ammonium acetate (Sigma Aldrich Inc.); water: DDH2O obtained from a Millipore water system; and brequinar was obtained from Sigma. (>99% purity). Solvent A: 0.1% formic acid in water. Solvent B: 0.1% Formic Acid in methanol and acetonitrile. Internal Standard (“IS”) precipitation solution was 150 ng/ml internal standards in acetonitrile: water (3:1, v/v).
Sample preparation: To 10 μL plasma sample was added 100 μL of working IS solution and 20 μL MeOH. Samples were then vortexed for 30 seconds, followed by centrifugation (Eppendorf 5415 R centrifuge) at 10,000 rpm for 8 minutes at 4° C. Supernatant of each sample was transferred into an autosampler vial and sealed with rubber/Teflon crimp cap. Sample volume that was injected onto HPLC was 5 μL. The calibrations samples were prepared at a test compound concentration of 1000, 500, 250, 100, 50, 10, 5 ng/mL in mouse plasma. The quality control samples were as follows: QC1=750 ng/mL, OC2=75 ng/mL, QC3=25 ng/mL, LLOQ=5 ng/mL.
HPLC Parameters: Accucore Vanquish C18 column (100×2.1 mm, dp=1.5 μm) used in a Vanquish UHPLC system, using a XBridge® BEH C18, 5-μm guard column. Mobile phase: gradient as provided below in Table 8 below. Column temperature: 40° C.±5° C.; Autosampler temperature: 10° C.±5° C. Flow rate: 0.4 ml/min. run time: 5.0 min.
The mass spectrometer used was a TSQ Quantiva (Thermo Fisher Scientific).
FIGS. 14A-14C show representative pharmacokinetic data obtained following administration of a representative disclosed compound, Cpd3, via oral dosing at different dose levels carried out using the methods described herein below in Examples. Briefly, wild type B6 mice were administered a single dose of Cpd3 by oral gavage at increasing concentrations (10, 25, 50 and 75 mg/kg). Blood plasma was sampled at 15, 30 and 60 minutes, and 2, 6 and 24 hours.

[6] = system: AML cell lines (MOLM13, MV4-11, THP1, HL-60, and OCI-AML3); experiment: cells; conditions: read-out: IC50 range for growth arrest in AML cell lines
Method: MTS assay for cell growth/viability: Mitochondrial activity was measured to determine cell proliferation using an MTS assay (tetrazolium dye 3′[4,5-dimethylthiazol-2-yl]-2,5-diphenyl-tetrazolium bromide). Metabolically active cells convert MTS tetrazolium salt into a purple formazan product that is soluble in tissue culture medium. The amount of formazan measured at 490 nm absorbance is proportional to the number of proliferating cells. […] Triplicate wells were set up for each condition. At 96 hours, the MTS reagent was added and after approximately 4 hours the plates were read in a spectrophotometer. MTS assays in primary AML cells were done in a similar manner as the cell lines with the following changes: 100K cells were plated per well, and the MTS was done in the presence of an HS5 stromal cell line to support the in vitro growth of the primary cells. Primary cells were incubated with MTS for approximately 8-12 hours (varies with the samples) before reading the absorbance.
Cell proliferation assays were carried out using the MTS assay described herein using five AML cell lines (i.e., MOLM13, MV4-11, THP1, HL-60, and OCI-AML3) with varied genetic backgrounds. The assays were carried out in a blinded fashion.

[7] = system: luciferase-expressing MOLM-13 cells; experiment: MOLM13 xenograft study, daily dosage regimen; assay type: in vivo, NCG mice
Method: The effect of a representative disclosed compound, Cpd3, on in vivo tumor growth was assessed in a MOLM13 xenograft study was examined using a daily dosage regimen. Briefly, male NCG (NOD-Prkdc^em26Cd52//2rg^em26Cd22/NjuCrl) mice (N=12 per group) were given an intravenous injection of 1×10^4 luciferase-expressing MOLM-13 cells. As discussed above, this model is believed to be a very aggressive model of tumor growth (vehicle treated mice typically reach early removal criteria by 24-26 days post-engraftment). Briefly, NCG mice were injected with 1×10^4 MOLM13-luciferase cells (N=12 per group) and at 4 days post-engraftment (Day 0) were imaged and enrolled into one of three treatment groups: Vehicle, 25 mg/kg Cpd3 (administered daily) or 50 mg/kg Cpd3 (administered daily). […] The color scale represents the radiance (p/s/cm2/sr), related to the amount of luciferase expression and therefore disease burden. […] Survival data were calculated using Kapler Meyer analysis (vehicle vs. 25 mg/kg dosing with Cpd3 or vehicle vs. 50 mg/kg dosing with Cpd3; each p<0.001). Arrow indicates the start of treatment.

For CCOc1ccc(-c2ccc(-c3cc(C(=O)O)c4cc(F)ccc4n3)cc2)cc1 [Cpd3, 2-(4′-ethoxy-[1,1′-biphenyl]-4-yl)-6-fluoroquinoline-4-carboxylic acid], which “induction of p53 signaling pathway and DNA damage” value [1] is on record?
Its value is “induces the p53 signaling pathway and DNA damage”.

And the IC50 [2]?
Its IC50 is 0.4 µM.

And the “rescue of cytotoxic effects by uridine” value ([3]; 0.25 or 0.5 μM compound, uridine 0 to 200 μM, 96 hours)?
The value was “rescued by growth in the presence of uridine”.

What about the IC50 ([3]; 96 hour, Table 7, read-out: 96 hour IC50 (nM) in MV-411 cell line) of the same compound?
Its IC50 is about 500 nM.

And the IC50 ([3]; 96 hours, read-out: IC50 (μM) at 96 hours, MV4-11)?
Its IC50 is 670 nM.

What about the “noncovalent binding interaction with kinases” value [4] of the same compound?
The value was “no apparent interactions with the screen targets”.

And the AUC(0-t) ([5]; 10 mg/kg, 10 mg/kg, read-out: AUC0-6)?
Its AUC(0-t) is 47 ± 0.92 µg·h/mL.

And the AUC(0-t) ([5]; 10 mg/kg, 10 mg/kg, read-out: AUC0-24)?
The AUC(0-t) was 66.7 ± 6.17 µg·h/mL.

And the AUC(0-t) ([5]; 25 mg/kg, 25 mg/kg, read-out: AUC0-6)?
The AUC(0-t) was 101 ± 38 µg·h/mL.

And the AUC(0-t) ([5]; 25 mg/kg, 25 mg/kg, read-out: AUC0-24)?
Its AUC(0-t) is 171 ± 34.2 µg·h/mL.

And the AUC(0-t) ([5]; 50 mg/kg, 50 mg/kg, read-out: AUC0-6)?
The AUC(0-t) was 333 ± 47.1 µg·h/mL.

And the AUC(0-t) ([5]; 50 mg/kg, 50 mg/kg, read-out: AUC0-24)?
Its AUC(0-t) is 480 ± 62.1 µg·h/mL.

And the AUC(0-t) ([5]; 75 mg/kg, 75 mg/kg, read-out: AUC0-6)?
Its AUC(0-t) is 531 ± 103 µg·h/mL.

And the AUC(0-t) ([5]; 75 mg/kg, 75 mg/kg, read-out: AUC0-24)?
Its AUC(0-t) is 786 ± 39.3 µg·h/mL.

And the Cmax ([5]; 10 mg/kg)?
Its Cmax is 18.6 ± 0.93 µg/mL.

And the Tmax ([5]; 10 mg/kg)?
Its Tmax is 0.83 ± 0.29 h.

And the half-life ([5]; 10 mg/kg)?
The half-life was 3.4 ± 0.3 h.

What about the Cmax ([5]; 25 mg/kg) of the same compound?
The Cmax was 35.9 ± 12.5 µg/mL.

What about the Tmax ([5]; 25 mg/kg) of the same compound?
The Tmax was 0.67 ± 0.29 h.

And the half-life ([5]; 25 mg/kg)?
The half-life was 6.05 ± 1.97 h.

What about the Cmax ([5]; 50 mg/kg) of the same compound?
Its Cmax is 93.2 ± 18 µg/mL.

What about the Tmax ([5]; 50 mg/kg) of the same compound?
The Tmax was 0.67 ± 0.29 h.

And the half-life ([5]; 50 mg/kg)?
Its half-life is 3.23 ± 0.77 h.

What about the Cmax ([5]; 75 mg/kg) of the same compound?
Its Cmax is 115 ± 8.99 µg/mL.

And the Tmax ([5]; 75 mg/kg)?
The Tmax was 0.75 ± 0.35 h.

What about the half-life ([5]; 75 mg/kg) of the same compound?
Its half-life is 2.76 ± 0.3 h.

What about the “relationship between dose and exposure” value ([5]; oral gavage, 10, 25, 50 and 75 mg/kg) of the same compound?
The value was “linear relationship between dose and exposure”.

And the IC50 [6]?
Its IC50 is 280 to 1100 nM.

What about the “Median survival time” value ([7]; 25 mg/kg QD PO) of the same compound?
The value was 24 days.

And the “Median survival time” value ([7]; 50 mg/kg QD PO)?
Its value is 27 days.

What about the “tumor burden (luciferase expression by IVIS imaging)” value ([7]; 25 or 50 mg/kg administered daily) of the same compound?
The value was “able to reduce the tumor burden in the mice”.
